# Laboratory results from US8936667B2, “Aqueous leaching process for recovery of precious metals with addition of di-thiooxamide ligand” (Anglo Operations Limited, priority 2009, dated 2015).
# Columns and labels:
# [1] = Leaching of Witwatersrand gold ore, parameter studies (Example 2); details: oxygen/permanganate, Eh above 60 mV; 25° C., 0.9 g/l DTO
# Excerpt: A head sample was submitted with every batch of samples in order to minimise errors caused by discrepancies in analysis among batches. The metal extractions for a particular batch of samples were therefore calculated using the head sample analysis from the same batch.
# Deionised water was used in all preparation, dissolution, leach and washing steps.
# The leach procedure was as follows:
# The required amounts of ligand and alkaline water were mixed in a jacketed leach reactor until the ligand was fully dissolved. The ore was then added to the solution (unless otherwise specified, initial solids concentration was 17% m/m) and the reactor lid was fitted on. A stirring impeller, pH and (Ag/AgCl) redox electrodes, titration dispensing tube, temperature probe and gas distribution tube (if oxygen was used) were fitted into ports in the lid. The ore was then leached for the required amount of time. A water bath was used to maintain the leach temperature for the duration of the leach. The leach pH was controlled with an autotitrator. If oxygen was the oxidant, a mass flow controller was used to control oxygen-flow into the solution. At the end of the leach period, the slurry was filtered and the residue was given at least two water washes using water of the same pH as the leach solution, followed by a final wash with deionised water. […]
# physchem = format: physicochemical
# Protocol: Prior to the leach, the ligand is dissolved in water which has been pre-adjusted to the leach pH. […] It was suspected that the ligand became doubly deprotonated at pH 13.5 and above.
smiles,measurement,setting,value
"NC(=S)C(N)=S [DTO, dithiooxamide]",Leach time to maximum gold extraction,[1],4 h
same,Solubility in water,physchem,does not have good solubility in water
same,Solubility of the ligand,physchem,extremely low
same,pKa,physchem,11
same,solubility,"physchem; pH 12, aqueous buffer, thermodynamic from solid",~900 µg/mL
same,Dissolution of ligand in water pre-adjusted to leach pH,physchem; pH 13.5 to 14 compared with pH 11 to 13,dissolved far more readily
